# Like-named read-outs stand apart in the source and are kept apart here.
# Assays:
# C. albicans [1] = experiment: Antifungal activity (MIC) of free versus liposomal polyenes; assay type: cell-based
# Method: The antifungal activity of free-verses liposomal-small polyenes was determined in vivo. These small polyenes included filipin, lagosin and natamycin.
# The in vivo toxicity of liposomal small polyenes was evaluated in groups of 8 Hale-Stone mice (6-8 weeks old, body weight =20-25g; University of Texas Science Park, Bastrop, Tex.). Liposomal polyenes were prepared following the protocol set forth in Example 2. Each liposomal-small polyene formulated and evaluated in this study, listed in table 6, was administered to a group of normal and a group of infected mice. These infected mice were prepared by injection with 0.2 ml. of C. albicans according to the protocol set forth in Example 6.
# The data on MIC of various liposomal-mepartricin preparations in normal and infected mice is presented for each of the small polyenes (filipin, lagasin natamysin and nystatin) and large polyenes in Table 6.
# HTLV-III/LAV = conditions: monocyte-related cell line H9; Schaffner et al. (1986); cited from earlier work
# [2] = tested on: Candida albicans (strain 336); experiment: In vitro fungal inhibition (MIC), twofold serial dilution; assay type: cell-based
# Method: The antifungal activity of free- verses liposomalhamycin against Candida albicans (strain 336) was determined in vitro. All strains of yeast were grown overnight at 37° C. on Sabouraud dextrose agar (SDA) plates. All molds were grown at 30° C. on SDA for 3 to 10 days prior to collection of spores. The inoculum was then processed for susceptibility testing as described earlier (Hopfer et al. (1984), Antimicrob. Agents Chemotherap., 25:387-389). A twofold serial dilutron method (Shadomy et al., In E. H. Lennette, et al., (eds.) Manual of Clinical Microbiology, 3rd ed. American Society for Microbiology, Washington, D.C. , pp. 647-653 (1980)) adapted to microtiter plates was used to determine the minimal inhibitory concentration (MIC) of the drugs.
# The antifungal activity of free- versus liposomal-lucensomycin against Candida albicans (Strain 336) was determined in vitro. […] The MIC of free-lucensomycin was compared with that of liposomal-lucensomycin.
# [3] = principal sterol of fungal versus human cell membranes; cited from earlier work
# human RBCs = experiment: In vitro toxicity: lysis of human red blood cells (hemoglobin release at 540 nm); conditions: 45 min
# Source text: Lysis of human red blood cells (RBCs) was quantitated by measuring the release of hemoglobin in the supernatants at 540 nm, as described previously (Mehta et al., (1984) Biochem. Biophys, Acta., 770:230-234). […] Release of hemoglobin by hypotonic lysis of the same number of human RBCs by water was taken as 100% positive control, while cells treated with PBS were taken as negative controls.
# Lysis of human red blood cells (RBCs) was quantitated by measuring the release of hemoglobin in the supernatants at 540 nm, as described previously (Mehta et al., Biochem. Biophys, Acta., Vol. 770, pp. 230-234 (1984)). […] Release of hemoglobin by hypotonic lysis of the same number of human RBCs by water was taken as 100% positive control, while cells treated with PBS were taken as negative controls.
# Lysis of human red blood cells (RBCs) was quantitated by measuring the release of hemoglobin in the supernatants at 540 nm, as described previously (Mehta et al., (1984) Biochem. Biophys. Acta., 770:230-234). […] Release of hemoglobin by hypotonic lysis of the same number of human RBCs by water was taken as 100% positive control, while cells treated with PBS were taken as negative controls.
# Lysis of human red blood cells (RBCs) was quantitated by measuring the release of hemoglobin in the supernatants at 540 nm, as described previously (Mehta, et al. (1984) Biochem. Biophys. Acta, 770:230-234). […]
# C. albicans [4] = experiment: Single dose therapy of disseminated Candida albicans infection in mice; assay type: in vivo; conditions: free-hamycin from 5 microgram/mouse, versus control untreated group
# Method: Hale-Stoner mice, six to eight weeks old (body weight, 20-25 g) were purchased from The University of Texas Science Park (Bastrop, TX). The mice (eight per group) were injected with 0.2 ml of C. albicans cell suspension containing 7×10^5 colony-forming units (cfu) via the tail vein. This concentration of cells was consistent in producing a disseminated infection after 48 hr, affecting primarily the liver, spleen, lungs and kidneys.
# Mice were infected with C. albicans as described in Example 7. […] The survival of the animals in each group was recorded.
compound,measurement,setting,value
C[C@@H]1[C@H](O)[C@@H](C)/C=C/C=C/C=C/C=C/C=C/C=C/C=C/[C@H](O[C@@H]2O[C@H](C)[C@@H](O)[C@H](N)[C@@H]2O)C[C@@H]2O[C@](O)(C[C@@H](O)C[C@@H](O)[C@H](O)CC[C@@H](O)C[C@@H](O)CC(=O)O[C@H]1C)C[C@H](O)[C@H]2C(=O)O [Amphotericin B],"MIC, free",C. albicans [1],0.4 µg/mL
same,Replication of HTLV-III/LAV (in words),HTLV-III/LAV,inhibited
"COc1cc2c(c3oc(-c4ccccc4)cc(=O)c13)C=CC(C)(C)O2 [Candidin, candidin]","MIC, free",C. albicans [1],5.0 µg/mL
"CCCCC[C@@H](O)[C@H]1C(=O)O[C@H](C)[C@@H](O)/C=C/C=C/C=C/C=C/C=C(\C)[C@@H](O)C[C@H](O)C[C@H](O)C[C@H](O)C[C@H](O)C[C@H](O)C[C@@H]1O [Filipin, filipin]","MIC, free",C. albicans [1],8.0 to 16.0 µg/mL
"CCCCC[C@@H](O)[C@H]1C(=O)O[C@H](C)[C@@H](O)/C=C/C=C/C=C/C=C/C=C(\C)[C@@H](O)[C@H](O)[C@H](O)C[C@H](O)C[C@H](O)C[C@H](O)C[C@H](O)C[C@@H]1O [Lagosin, lagosin]","MIC, free",C. albicans [1],4.0 µg/mL
"CCCCC1C/C=C/C=C/C=C/C=C/C(O[C@@H]2O[C@H](C)[C@@H](O)[C@H](N)[C@@H]2O)CC2OC(O)(CC(O)CC3OC3/C=C/C(=O)O1)CC(O)C2C(=O)O (some centres unmarked) [Lucensomycin, lucensomycin]",Antifungal activity (in words),"[2]; in vitro, with or without cholesterol where stated",high antifungal activity
same,Maximum solubility,DMFA,10000 µg/mL
same,Solubility in DMFA at 1 mg/ml,"DMFA, 1 mg/ml",Yes
same,Maximum solubility,DMSO,20000 µg/mL
same,Solubility in DMSO at 1 mg/ml,"DMSO, 1 mg/ml",Yes
same,Maximum solubility,methanol,500 µg/mL
same,Solubility in methanol at 1 mg/ml,"methanol, 1 mg/ml",Partial
same,Solubility in water/saline at 1 mg/ml,"water/saline, 1 mg/ml",nil
same,Avidity for ergosterol compared to cholesterol (in words),[3],greater avidity for ergosterol
same,Lysis of human RBCs,"human RBCs; 10 mg/ml, 37° C.",70%
same,Lysis of human RBCs,"human RBCs; 30 mg/ml, liposomes without cholesterol",approximately 100%
"C[C@@H]1C/C=C/C=C/C=C/C=C/[C@H](O[C@@H]2O[C@H](C)[C@@H](O)[C@H](N)[C@@H]2O)C[C@@H]2O[C@](O)(C[C@@H](O)C[C@H]3O[C@@H]3/C=C/C(=O)O1)C[C@H](O)[C@H]2C(=O)O [Natamycin, natamycin]","MIC, free",C. albicans [1],4.0 µg/mL
C[C@@H]1[C@H](O)[C@@H](C)/C=C/C=C/CC/C=C/C=C/C=C/C=C/C(O[C@H]2O[C@H](C)[C@@H](O)[C@H](N)[C@@H]2O)CC2O[C@](O)(CC(O)C(O)CCC(O)CC(O)CC(O)CC(=O)O[C@H]1C)CC(O)C2C(=O)O (some centres unmarked) [Nystatin],"MIC, free",C. albicans [1],1.0 µg/mL
COC(=O)[C@H]1[C@@H]2C[C@@H](O[C@@H]3O[C@H](C)[C@@H](O)[C@H](N)[C@@H]3O)/C=C/C=C/C=C/C=C/C=C/C=C/C=C/[C@H](C)[C@@H](O)[C@@H](C)[C@H](C)OC(=O)C[C@H](O)C[C@H](O)CC[C@@H](O)[C@H](O)C[C@H](O)C[C@](O)(C[C@@H]1O)O2 [amphotericin B methyl ester ascorbate],Replication of HTLV-III/LAV (in words),HTLV-III/LAV,inhibited
hamycin,MIC,"[2]; Candida albicans strain 336, in vitro",0.25 microgram/ml
same,Survival of infected mice (in words),C. albicans [4],None of the doses tested improved the survival of infected mice
same,Avidity for ergosterol compared to cholesterol (in words),[3],greater avidity for ergosterol
mepartricin,"MIC, free",C. albicans [1],2.0 to 4.0 µg/mL

# — patent publication US5032404A, “Lipsome-incorporation of polyenes” (priority 1989, dated 1991)
